Test results published in patent US20220295793A1 (priority 2019, published 2022).
Read-outs that look alike come from different tables or passages of the source.

Columns and labels:
Phytophthora infestans = assay type: in vivo; conditions: tomatoes, preventive spray, evaluated 3 days after inoculation
cucumber downy mildew = conditions: R. Zhang, J. Pesticide Sci., vol. 39, no. 1, 2014, pages 43-47; cited from earlier work

| Structure (SMILES) | Efficacy in % found (Phytophthora infestans; 0.02 ppm a.i.) | Efficacy in % found (Phytophthora infestans; 0.04 ppm a.i.) | Efficacy in % found (Phytophthora infestans; 2.5 ppm a.i.) | Efficacy in % found (Phytophthora infestans; 5 ppm a.i.) | Efficacy in % found (Phytophthora infestans; 10 ppm a.i.) | controlling cucumber downy mildew (cucumber downy mildew) |
| --- | --- | --- | --- | --- | --- | --- |
| CS(=O)(=O)Oc1cccc(Cl)c1C1CC(c2csc(C3CCN(C(=O)Cn4nc(C(F)F)cc4C(F)F)CC3)n2)=NO1 (racemic) [(A) fluoxapiprolin, 2-{(5RS)-3-[2-(1-{[3,5-bis(difluoromethyl)-1H-pyrazol-1-yl]acetyl}-4-piperidyl)thiazol-4-yl]-4,5-dihydroisoxazol-5-yl}-3-chlorophenyl methanesulfonate] | 54% | 79% |  |  |  |  |
| COc1c(F)c(F)c(C(=O)NCc2ncc(C(F)(F)F)cc2Cl)c(F)c1F [(B) fluopimomide, N-{[3-chloro-5-(trifluoromethyl)-2-pyridyl]methyl}-2,3,5,6-tetrafluoro-4-methoxybenzamide] |  |  | 0% | 0% | 0% | highly effective |
